For one data set, the target named is Tdp1 (Homo sapiens, UniProt Q9NUW8). Description: Tdp1 activity, real-time fluorescence oligonucleotide biosensor (FAM/BHQ1) assay. In kind it is biochemical. From the text: An oligonucleotide real-time biosensor was used based on the ability of Tdp1 to remove fluorophore quenchers from the 3′-end of DNA, as previously described. The hexadecameric oligonucleotide carried 5(6)-carboxyfluorescein (FAM) at the 5′-end and the fluorophore quencher BHQ1 (Black Hole Quencher-1) at the 3′-end. Tdp1 inhibitors prevent removal of fluorophore quenchers, thus reducing fluorescence intensity.
The methodology has been reported in our previous work and consists of fluorescence intensity measurement in a reaction of quencher removal from a fluorophore quencher-coupled DNA oligonucleotide catalyzed by Tdp1. The reaction was carried out at different concentrations of inhibitors (the control samples contained 1% of DMSO, Sigma, St. Louis, MO, USA). The reaction mixtures contained Tdp1 buffer (50 mM Tris-HCl pH 8.0, 50 mM NaCl, and 7 mM β-mercaptoethanol), 50 nM biosensor, and an inhibitor being tested. Purified Tdp1 (1.5 nM) triggered the reaction. The biosensor (5′-[FAM] AAC GTC AGGGTC TTC C [BHQ]-3′) was synthesized in the Laboratory of Biomedical Chemistry at the Institute of Chemical Biology and Fundamental Medicine (Novosibirsk, Russia).
The reactions were incubated on a POLARstar OPTIMA fluorimeter (BMG LABTECH, GmbH, Ortenberg, Germany) to measure fluorescence every 55 s (ex. 485/em. 520 nm) during the linear phase (here, data from minute 0 to minute 8). The values of IC50 were determined using a six-point concentration response curve in minimum three independent experiments and were calculated using MARS Data Analysis 2.0 (BMG LABTECH, GmbH, Ortenberg, Germany).

Data set [1] is described as follows: Intrinsic cytotoxicity, EZ4U cell proliferation and cytotoxicity assay. It is filed as cell-based, human. To be noted: human, HeLa cells, compound alone, 3 days, read-out: CC50 (half maximal cytotoxic concentration). From the text: (§1) Top1 poisons are used as anticancer drugs for the treatment for various oncological diseases. Since Tdp1 is involved in the removal of DNA damage caused by Top1 poisons, the activity of Tdp1 can lead to the development of drug resistance. Thus, it is believed that Tdp1 inhibition can enhance the efficacy of Top1 poisons. Tdp1 inhibitors should have the lowest possible intrinsic toxicity to minimize potential side effects. Therefore, we studied the intrinsic cytotoxicity of the compounds against HeLa cells (cervical carcinoma). EZ4U cell proliferation and cytotoxicity assay results are shown in Figure 4 for the ligands with Tdp1 inhibitory activity.
(§2) The cell culture was monitored for 3 days.

For data set [2], the system named is HeLa cells. The description is as above. It is filed as cell-based, human. The settings on record: for Intrinsic toxicity to HeLa cells (in words): without topotecan; for CC50: compound alone, 3 days, read-out: CC50 (half maximal cytotoxic concentration).
Excerpt: as §1, §2

The test system of data set [3] is HeLa cells. Description: cells. To be noted: for effect of topotecan on the cytotoxicity of the Tdp1 inhibitor (in words): Mann–Whitney U-test; for CC50: Homo sapiens, HeLa. The method, then:
For comparison, the concentration of the inhibitors was increased to 20 μM.
Cytotoxicity of the compounds to HeLa (human cervical cancer) cell line was examined using the EZ4U Cell Proliferation and Cytotoxicity Assay (Biomedica, Vienna, Austria), according to the manufacturer’s protocols. The cells were grown in Iscove’s modified Dulbecco’s medium (IMDM) with 40 μg/mL gentamicin, 50 IU/mL penicillin, 50 μg/mL streptomycin (MP Biomedicals, Santa Ana, CA, USA), and 10% of fetal bovine serum (Biolot, St. Petersburg, Russia) in a 5% CO2 atmosphere. After formation of a 30–50%-monolayer, the tested compounds were added to the medium. The volume of the added reagents was 1/100 of the total volume of the culture medium, and the amount of DMSO (Sigma, St. Louis, MO, USA) was 1% of the final volume. Control cells were grown in the presence of 1% DMSO. The cell culture was monitored for 3 days. To assess the influence of the inhibitors on the cytotoxic effect of topotecan (ACTAVIS GROUP PTC ehf., Bucharest, Romania), 50% cytotoxic concentrations of topotecan and of each inhibitor were determined to attain a defined single-agent effect. Then, minimum two independent tests were performed with each inhibitor in combination with topotecan. When using a combination of drugs, Tdp1 inhibitors were first added, then topotecan was added immediately (within 10–15 min).

Where [4] appears, read: Tdp1, values of supplementary Table S1 (less rounded), read-out: IC50 (µM), Table S1.
The mark [5] stands for this setting: purified Tdp1 1.5 nM, 50 nM biosensor, read-out: IC50 (Tdp1 inhibiting activity).

SMILES strings stand for the structures. Several values for one entry are separate records, joined by “and”; a condition that tells them apart may be missing. Equal values may be shown once. Entries after “also recorded” stand apart in the source; their conditions may differ. Read-outs that look alike come from different tables or passages of the source.

Sequence of Tdp1 (Q9NUW8 whole entry): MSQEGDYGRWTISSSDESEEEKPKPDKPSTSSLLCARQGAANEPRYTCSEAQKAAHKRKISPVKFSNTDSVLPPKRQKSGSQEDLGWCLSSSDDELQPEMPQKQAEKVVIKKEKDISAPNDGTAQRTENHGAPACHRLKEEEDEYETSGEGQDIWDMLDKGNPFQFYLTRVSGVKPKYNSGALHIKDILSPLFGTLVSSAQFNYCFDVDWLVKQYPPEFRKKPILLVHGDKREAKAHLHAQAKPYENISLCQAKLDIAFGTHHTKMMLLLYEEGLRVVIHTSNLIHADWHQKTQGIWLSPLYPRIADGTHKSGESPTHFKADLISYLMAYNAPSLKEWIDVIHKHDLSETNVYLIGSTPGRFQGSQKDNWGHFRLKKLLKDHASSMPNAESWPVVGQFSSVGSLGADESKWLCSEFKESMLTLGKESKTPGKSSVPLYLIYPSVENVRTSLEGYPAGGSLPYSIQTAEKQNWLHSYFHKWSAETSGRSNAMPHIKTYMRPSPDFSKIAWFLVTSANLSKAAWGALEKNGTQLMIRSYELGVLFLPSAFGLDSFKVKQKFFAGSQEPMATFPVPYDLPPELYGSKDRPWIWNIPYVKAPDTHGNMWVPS

For orientation: IC50 means the concentration that inhibits the measured activity by half. For `CCCS(=O)(=O)Oc1c(OC)cc(Br)c2c1CN1CCc3cc4c(cc3C1C2)OCO4` (stereo not shown) [12c], the IC50 on Tdp1 (setting [4]) was found to be 2.86 ± 1.25 µM; on Tdp1 (setting [5]), 2.9 ± 1.3 µM. The CC50 at 3 days in data set [1] was over 100 µM. Also, the “Intrinsic toxicity to HeLa cells (in words)” value (from here on “Intrinsic toxicity”) in the data set with HeLa cells [2] was “non-toxic up to 100 μM”. Further, the “effect of topotecan on the cytotoxicity of the Tdp1 inhibitor (in words)” value (“effect … of the Tdp1 inhibitor (in words)” for short) in the data set on HeLa cells [3] (HeLa cells, 2 μM topotecan) is listed as “negligible or unreliable”.
`COc1ccc2c(c1OS(=O)(=O)c1ccc(C)cc1)CN1CCc3cc4c(cc3C1C2)OCO4` (stereo not shown) [11e]: at Tdp1, the “Tdp1 inhibitory activity (in words)” value was “inactive”. The IC50 at Tdp1 (setting [5]) was over 15 µM.
As to `COc1ccc2c(c1OS(=O)(=O)c1c(F)c(F)cc(F)c1F)CN1CCc3cc4c(cc3C1C2)OCO4` (stereo not shown) [11g], the IC50 on Tdp1 (setting [4]) and on Tdp1 (setting [5]) was 1.05 ± 0.05 µM each time. The CC50 at 3 days in data set [1] was over 100 µM. In the data set on HeLa cells [2] (100 μM maximum concentration), the living cells turned out to be 100%. Also, in the data set on HeLa cells [2], the “Intrinsic toxicity” value was “low toxicity; also recorded: nontoxic”. Besides, the “sensitizing effect on the cytotoxicity of topotecan (in words)” value in the data set on HeLa cells [3] (HeLa cells) is reported as “doubled; also recorded: significant effect; also recorded: pronounced sensitizing effect; also recorded: sensitized the cancer cells to topotecan”. For the same molecule, in the data set on HeLa cells [3] (HeLa cells, 2 μM topotecan), the “effect … of the Tdp1 inhibitor (in words)” value is given as “significantly increased”. The “decrease in cell survival in the presence of topotecan” value with HeLa cells [3] (HeLa cells, 2 μM topotecan, at all inhibitor concentrations) is on record as ~ 30%.
On to `CCCS(=O)(=O)Oc1c(OC)ccc2cc3[n+](cc12)CCc1cc2c(cc1-3)OCO2` [10c, 10-Methoxy-2,3-methylenedioxy-9-((propane-1-sulfonyl)oxy)protoberberine chloride], for which the IC50 on Tdp1 (setting [5]) was over 15 µM.
Same read-out and setting: for `CCCS(=O)(=O)Oc1c(OC)ccc2c1CN1CCc3cc4c(cc3C1C2)OCO4` (stereo not shown) [11c] the value was over 15 µM.
With `CC[C@@]1(O)C(=O)OCc2c1cc1n(c2=O)Cc2cc3c(CN(C)C)c(O)ccc3nc2-1` [topotecan, reference compound], the CC50 at 3 days in data set [1] came out at 2 µM. In addition, the CC50 in the data set on HeLa cells [3] (read-out: CC50, μM–5 μM Tdp1 inhibitor (cytotoxic potential of topotecan)) is 6.8 ± 1.1 µM; with HeLa cells [3] (read-out: CC50, μM–20 μM Tdp1 inhibitor (cytotoxic potential of topotecan)), 6.8 ± 1.1 µM.
As to `CCCCS(=O)(=O)Oc1c(OC)ccc2c1CN1CCc3cc4c(cc3C1C2)OCO4` (stereo not shown) [11d], on Tdp1 (setting [5]), the IC50 was over 15 µM.
Same read-out and setting: for `CCS(=O)(=O)Oc1c(OC)ccc2c1CN1CCc3cc4c(cc3C1C2)OCO4` (stereo not shown) [11b] the value was over 15 µM; for `COc1cc(Br)c2c(c1OS(C)(=O)=O)CN1CCc3cc4c(cc3C1C2)OCO4` (stereo not shown) [12a], over 15 µM.
For the molecule `COc1ccc2c(c1OS(=O)(=O)c1c(F)c(F)c(F)c(F)c1F)CN1CCc3cc4c(cc3C1C2)OCO4` (stereo not shown) [11f], the IC50 at Tdp1 (setting [4]) was 0.98 ± 0.2 µM. Moreover, the IC50 on Tdp1 (setting [5]) was ~1 µM and 1 µM. Besides, the CC50 at 3 days in data set [1] is 10 µM. For the same molecule, the cell death in the data set with HeLa cells [2] (5 μM) came to 20%. This molecule displayed a cells that die with HeLa cells [2] (20 μM) of 90%. Further, in the data set on HeLa cells [2], the CC50 was found to be 11 ± 2 µM. Besides, in the data set on HeLa cells [3] (HeLa cells, 2 μM topotecan), the “decrease of CC50 in the presence of topotecan (fold)” value is “three fold” and the “effect … of the Tdp1 inhibitor (in words)” value is given as “significantly increased”.
As for `COc1ccc2c(c1OS(=O)(=O)c1c(F)c(F)c(C(F)(F)F)c(F)c1F)CN1CCc3cc4c(cc3C1C2)OCO4` (stereo not shown) [11h], the values for the IC50 at Tdp1 (setting [4]) and at Tdp1 (setting [5]) were 0.93 ± 0.22 µM and 0.9 ± 0.2 µM, respectively. For the same molecule, the CC50 at 3 days in data set [1] was 2.6 ± 0.1 µM. Besides, the “effect … of the Tdp1 inhibitor (in words)” value in the data set on HeLa cells [3] (HeLa cells, 2 μM topotecan) is listed as “negligible or unreliable”.
In the case of `COc1cc(Br)c2c(c1OS(=O)(=O)c1c(F)c(F)c(F)c(F)c1F)CN1CCc3cc4c(cc3C1C2)OCO4` (stereo not shown) [12f], the IC50 on Tdp1 (setting [5]) was found to be 0.53 ± 0.01 µM. Also, the CC50 at 3 days in data set [1] stood at 10 µM. Moreover, the CC50 with HeLa cells [2] was determined as 9.9 ± 4.5 µM. Moreover, the “effect … of the Tdp1 inhibitor (in words)” value in the data set with HeLa cells [3] (HeLa cells, 2 μM topotecan) is “negligible or unreliable”.
For `COc1ccc2c(c1OS(C)(=O)=O)CN1CCc3cc4c(cc3C1C2)OCO4` (stereo not shown) [11a], on Tdp1 (setting [5]), the IC50 is over 15 µM.
On to `CCCCS(=O)(=O)Oc1c(OC)ccc2cc3[n+](cc12)CCc1cc2c(cc1-3)OCO2` [10d, 9-(Butane-1-sulfonyl)oxy-10-methoxy-2,3-methylenedioxy protoberberine chloride], for which the IC50 on Tdp1 (setting [5]) was over 15 µM.
For the molecule `COc1ccc2cc3[n+](cc2c1OC)CCc1cc2c(cc1-3)OCO2` [compound 9, berberine], the IC50 on Tdp1 (setting [4]) was over 15 µM.
With `COc1ccc2cc3[n+](cc2c1OS(C)(=O)=O)CCc1cc2c(cc1-3)OCO2` [10a, 10-Methoxy-9-methanesulfonyloxy-2,3-methylenedioxyprotoberberine chloride], the IC50 on Tdp1 (setting [5]) was over 15 µM.
For `COc1cc(Br)c2c(c1OS(=O)(=O)c1c(F)c(F)c(C(F)(F)F)c(F)c1F)CN1CCc3cc4c(cc3C1C2)OCO4` (stereo not shown) [12h], the IC50 at Tdp1 (setting [4]) stood at 1.38 ± 0.3 µM; at Tdp1 (setting [5]), 1.4 ± 0.3 µM. Also, the CC50 at 3 days in data set [1] is 2.2 ± 1.5 µM. Also, the “effect … of the Tdp1 inhibitor (in words)” value with HeLa cells [3] (HeLa cells, 2 μM topotecan) was “negligible or unreliable”.
In the case of `CCS(=O)(=O)Oc1c(OC)cc(Br)c2c1CN1CCc3cc4c(cc3C1C2)OCO4` (stereo not shown) [12b], at Tdp1 (setting [5]), the IC50 is over 15 µM.
Take `CCCCS(=O)(=O)Oc1c(OC)cc(Br)c2c1CN1CCc3cc4c(cc3C1C2)OCO4` (stereo not shown) [12d]: the figures for the IC50 at Tdp1 (setting [4]) and on Tdp1 (setting [5]) were 4.06 ± 1.05 µM and 4 ± 1 µM, respectively. In addition, the CC50 at 3 days in data set [1] is over 100 µM. The “Intrinsic toxicity” value with HeLa cells [2] is “non-toxic up to 100 μM”. The “effect … of the Tdp1 inhibitor (in words)” value in the data set on HeLa cells [3] (HeLa cells, 2 μM topotecan) was “negligible or unreliable”.
In the case of `COc1cc(Br)c2c(c1OS(=O)(=O)c1ccc(C)cc1)CN1CCc3cc4c(cc3C1C2)OCO4` (stereo not shown) [12e], the “Tdp1 inhibitory activity (in words)” value on Tdp1 was “inactive”. For the same molecule, the IC50 on Tdp1 (setting [5]) is over 15 µM.
As to `COc1cc(Br)c2c(c1OS(=O)(=O)c1c(F)c(F)cc(F)c1F)CN1CCc3cc4c(cc3C1C2)OCO4` (stereo not shown) [12g], the IC50 on Tdp1 (setting [4]) stood at 1.33 ± 0.28 µM; at Tdp1 (setting [5]), 1.3 ± 0.3 µM. For the same molecule, in data set [1], the CC50 at 3 days worked out at 95 ± 5 µM. Moreover, the “sensitizing effect on the cytotoxicity of topotecan (in words)” value with HeLa cells [3] (HeLa cells) is “doubled; also recorded: significant effect; also recorded: pronounced sensitizing effect; also recorded: sensitized the cancer cells to topotecan”. Further, the “effect … of the Tdp1 inhibitor (in words)” value with HeLa cells [3] (HeLa cells, 2 μM topotecan) is “significantly increased”.
Consider `CCS(=O)(=O)Oc1c(OC)ccc2cc3[n+](cc12)CCc1cc2c(cc1-3)OCO2` [10b, 9-Ethanesulfonyloxy-10-methoxy-2,3-methylenedioxyprotoberberine chloride], for which the IC50 on Tdp1 (setting [5]) was over 15 µM.

Source of the values: paper PMC7582571, “The First Berberine-Based Inhibitors of Tyrosyl-DNA Phosphodiesterase 1 (Tdp1), an Important DNA Repair Enzyme” (International Journal of Molecular Sciences, 2020).
